Experimental data reported in article PMC9409168, “Kinetic Characterization of Cerium and Gallium Ions as Inhibitors of Cysteine Cathepsins L, K, and S” (International Journal of Molecular Sciences, 2022).
Read-outs that look alike come from different tables or passages of the source.

What was measured:
[1] = biological target: T1, cathepsin L (Homo sapiens, UniProt P07711); assay: Kinetics of cathepsin L inhibition by metal ions, fluorogenic substrate Z-Leu-Arg-AMC; format: biochemical; details: for Mechanism: specific velocity plot
T1 construct: made in house; host or cells: E. coli
T1 sequence (P07711 114-333): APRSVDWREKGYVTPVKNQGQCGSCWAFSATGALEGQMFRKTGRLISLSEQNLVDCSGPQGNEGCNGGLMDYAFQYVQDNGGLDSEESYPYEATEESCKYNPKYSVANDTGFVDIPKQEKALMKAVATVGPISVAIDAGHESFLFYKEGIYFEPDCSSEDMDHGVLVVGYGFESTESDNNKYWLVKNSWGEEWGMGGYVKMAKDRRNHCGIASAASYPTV

[2] = biological target: T2, cathepsin S (Homo sapiens, UniProt P25774); assay: Kinetics of cathepsin S inhibition by metal ions, fluorogenic substrate Z-Val-Val-Arg-AMC; format: biochemical; details: for Mechanism: specific velocity plot / titration
T2 construct: made in house; host or cells: E. coli
T2 sequence (P25774 115-331): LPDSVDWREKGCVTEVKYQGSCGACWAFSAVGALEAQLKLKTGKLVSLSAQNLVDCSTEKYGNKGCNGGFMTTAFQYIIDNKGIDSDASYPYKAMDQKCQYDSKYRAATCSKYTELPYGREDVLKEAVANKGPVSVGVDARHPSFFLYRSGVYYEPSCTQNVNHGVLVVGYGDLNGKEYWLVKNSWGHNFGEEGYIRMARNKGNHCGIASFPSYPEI

[3] = test system: cell growth and metabolism; set-up: method as in PMID 7929991; details: cited from earlier work
[4] = biological target: T1, cathepsin L; assay: Degradation of insoluble bovine neck ligament elastin by cathepsin L; format: biochemical; details: metal ions 0.5 mM
Description: (§1) Degradation of insoluble elastin was performed and analyzed according to the protocol in ref. [51]. Briefly, reactions were performed using 200 µL samples, each containing 1 mg of insoluble bovine neck ligament elastin. The enzymes were added to a final concentration of 0.2 µM and the metal ions to a final concentration of 0.5 mM. Samples were incubated at 37 °C for 120 min on an Eppendorf Thermomixer with shaking at 1200 rpm, and the reactions were then stopped by the addition of trichloroacetic acid to a final concentration of 5% (w/V). Samples were cleared by centrifugation and 100 µL of the supernatant was mixed with 1400 µL of 0.2 M sodium borate buffer and 500 µL of a 0.15 mg/mL solution of fluorescamine in acetone. The fluorescence of the samples was measured at an excitation wavelength of λex = 390 nm and emission wavelength of λem = 480 nm. Blank samples without added enzyme were run in parallel and their fluorescence values were subtracted from the samples. Experiments were performed in three replicates of each sample and each experiment was repeated multiple times to assure reproducibility of the results.

[5] = biological target: T3, cathepsin K (Homo sapiens, UniProt P43235); assay: Kinetics of cathepsin K inhibition by metal ions, fluorogenic substrate Z-Phe-Arg-AMC; format: biochemical; details: for Mechanism: specific velocity plot / titration
T3 construct: made in house; host or cells: E. coli
T3 sequence (P43235 115-329): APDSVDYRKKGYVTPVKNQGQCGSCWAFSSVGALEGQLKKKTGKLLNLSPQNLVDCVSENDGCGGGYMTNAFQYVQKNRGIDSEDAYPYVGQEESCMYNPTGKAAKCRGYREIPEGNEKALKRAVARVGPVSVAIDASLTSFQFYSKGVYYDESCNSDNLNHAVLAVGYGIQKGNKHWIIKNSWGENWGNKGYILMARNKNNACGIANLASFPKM

[6] = biological target: T3, cathepsin K; assay: Degradation of insoluble bovine neck ligament elastin by cathepsin K; format: biochemical; details: metal ions 0.5 mM
Description: as §1

[7] = biological target: cathepsins L, K, and S; assay: Kinetics of inhibition, summary over all tested peptidases; format: biochemical, human; details: range over all peptidases tested (cathepsins L, K, S); read-out: equilibrium dissociation constants (inhibition constants)
[8] = biological target: T2, cathepsin S; assay: Degradation of insoluble bovine neck ligament elastin by cathepsin S; format: biochemical; details: metal ions 0.5 mM
Description: as §1

[9] = Z-Leu-Arg-AMC, 25 °C, 0.1 M sodium acetate buffer pH 5.5, read-out: KX
[10] = Z-Val-Val-Arg-AMC, 25 °C, 0.1 M sodium acetate buffer pH 5.5, read-out: KX
[11] = effect on catalytic rate, general modifier mechanism
[12] = effect on substrate affinity, general modifier mechanism
[13] = Z-Phe-Arg-AMC, 25 °C, 0.1 M sodium acetate buffer pH 5.5, read-out: KX

SMILES | Ki [1, 9] [µM] | Ki ([1]; read-out: KX) [µM] | Mechanism [1] | Ki [2, 10] [µM] | β [2, 11] | α [2, 12] | Ki ([2]; read-out: KX) [µM] | Mechanism [2] | residual enzyme activity at saturation ([2]; synthetic substrate) | toxic effects on cell growth and metabolism [3] | inhibition of elastin degradation, comparison in words [4] | Ki [5, 13] [µM] | β [5, 11] | α [5, 12] | Ki ([5]; read-out: KX) [µM] | Mechanism [5] | residual enzyme activity at saturation ([5]; synthetic substrate) | inhibition of elastin degradation, comparison in words [6] | Ki [7] [µM] | inhibition of elastin degradation, comparison in words [8]
O=[N+]([O-])[O-].O=[N+]([O-])[O-].O=[N+]([O-])[O-].[Ga+3] [Ga^3+, Ga(NO3)3] | 0.6 ± 0.04 | 0.6 | Linear specific | 3.7 ± 0.6 | 3.3 ± 0.5 | 11.3 ± 1.0 | ~4 | Hyperbolic mixed | about 20% | no significant toxic effects | most potent inhibitor | 4.1 ± 0.8 | 2.4 ± 1.4 | 11.5 ± 1.0 | ~4 | Hyperbolic mixed | about 20% | – | – | –
[Pb+2] [Pb^2+, reference compound] | 26 ± 12 | – | Linear specific | 50 ± 5 | – | – | – | Linear specific | – | – | – | 135 ± 13 | – | – | – | Linear specific | – | – | – | –
[Zn+2] [Zn^2+] | 7.5 ± 0.9 | – | Linear specific | 2.9 ± 0.5 | – | – | – | Linear specific | – | – | – | 7.3 ± 0.3 | – | – | – | Linear specific | – | strongest inhibitor | ~1 | strongest inhibitor
